Entries after “also recorded” stand apart in the source; their conditions may differ.
Tested on: Human Colon Tumour (HCT) 116 cells
Assay: Western Blot of p53 isoforms after doxorubicin treatment with or without pulsed technology
Assay type: cell-based
Details: for uptake / intra-cellular delivery of doxorubicin from the media: concluded from upregulation of p53 isoforms
Procedure: Human Colon Tumour (HCT) 116 cells (adherent cells) (ATCC, USA-ATCC® CCL-247™) were seeded at a density of 3×10^5 cells per well in two CELLSTAR® 6-well plates (9.6 cm^2) in a final volume of 5 mL Dulbecco's Modified Eagle Medium (DMEM) (Thermo Fisher, USA)+10% Fetal Bovine Serum (FBS) (Hyclone, USA) 24 hours before treatment.
The naked agent used was Doxorubicin (0.25 μM) (Sigma Aldrich) in absolute ethanol and was given to the cells for a 1 hour treatment period and incubated at 37° C., at 5% CO^2.
After treatment the media was removed and fresh media was added to the cells. One of the plates was incubated directly at 37° C., at 5% CO^2 and the second plate was placed in a different incubator and pulsed using the pulsed technology of the present invention at 37° C., at 5% CO^2.
Protein extracts were collected at 3 hours, 6 hours, 9 hours, 16 hours or 24 hours of treatment for analysis by SDS-page.
1. For protein extraction the cells were washed twice with ice-cold PBS and then lysed in NP-40 extraction buffer (50 mM Tris pH 7.5; 10% glycerol; 0.1% “NP-40 Alternative” (Merck Millpore, USA); 100 mM NaCl; 0.2 mM EDTA) supplemented with 1× Complete™ Protease Inhibitor Cocktail (Roche, Switzerland). Extracts were sonicated (20 seconds, 20% amplitude) and protein concentration was determined using BCA™ Protein Assay Kit (ThermoFisher Scientific, USA) according to the manufacturer's recommendations.
1. Protein extracts (15/20 μg depending on the experiment) were supplemented with 0.1M dithiothreitol (DTT) and 1×LDS buffer (Invitrogen, USA) and were heated at 95° C. for 10 min before loading on NuPAGE 10% Bis-Tris polyacrylamide gels (Invitrogen, USA).
2. Protein samples were separated by electrophoresis (100V) using 1×MOPS Running Buffer. Transfer of proteins was performed at 12V overnight onto a nitrocellulose membrane (Protran 0.1 μm from GE Healthcare, USA) in 1× Transfer Buffer supplemented with 20% methanol. 1× Transfer Buffer is prepared from 10× Wet blot solution containing 144 g of glycine and 30 g Tris-Base in a final volume of 1 L milli-Q water.
3. Membranes were blocked for 30 min in 5% BSA diluted in PBS-0.1% Tween20 before being incubated overnight with a primary antibody (Mouse monoclonal antibody DO1). After a wash of 15 min in PBS-Tween20, membranes were incubated for 1 h with a corresponding secondary antibody (HRP conjugated Donkey anti Mouse). All secondary antibodies, conjugated with Horse Radish Peroxidase (HRP), were purchased from Jackson ImmunoResearch lab and used at 1:10000/1:15000 dilution (depending on the antibody) in 5% BSA-PBS-Tween20.
At the end of the incubation membranes were washed twice with PBS-Tween20 for 15 min followed by a final 10 min wash with PBS. The chemiluminescence signal was detected on Hyperfilm™ ECL (Cytiva, USA) using the Amersham ECL Western Blotting Detection System (Cytiva, USA).

## COc1cccc2c1C(=O)c1c(O)c3c(c(O)c1C2=O)C[C@@](O)(C(=O)CO)C[C@@H]3O[C@H]1C[C@H](N)[C@H](O)[C@H](C)O1 [Doxorubicin]
0.25 μM doxorubicin for 1 hour, pulsed technology vs control, after 16 hours
  p53alpha expression (Western Blot, FIG. 8): significant overproduction of p53alpha compared to the control
Doxorubicin 0.25 μM for 1 hour, pulsed technology vs control
  Other isoforms of p53 (d133p53alpha, d133p53beta, d160p53beta) expression (Western Blot, FIG. 7): more upregulated
Doxorubicin 0.25 μM for 1 hour, pulsed technology vs control, seen from 3 hours, most evident 24 hours post-treatment
  p53alpha expression (Western Blot, FIG. 7): upregulated
doxorubicin, pulsed technology arm vs control arm
  γH2AX expression (ionising radiation marker, Western Blot): no observed change; also recorded: remained unchanged
Pulsed technology vs control
  uptake / intra-cellular delivery of doxorubicin from the media: significantly improved
Pulsed technology vs control, listed as doxorubicin
  uptake / intra-cellular delivery of doxorubicin from the media: increases the ability of the cells to uptake doxorubicin
